Test results reported in patent US10154955B2, “Compositions including bauhinia, methods of making and using the same in skin anti-aging and other skin applications” (ACCESS BUSINESS GROUP INTERNATIONAL LLC, priority 2016, dated 2018).
In brackets after ≈: the same amount, converted by molar mass. Several values for one entry are separate records, joined by “and”; a condition that tells them apart may be missing. Equal values may be shown once.

How the values were obtained:
[1] = Cell toxicity-CTG in HepG2 cells; type: cell-based; conditions: human, FIG. 5
Description: On Day 1 of the procedure, Hep G2 [HEPG2] cells were plated on 96-well cell culture plates. To do so, disk was trypsinized and the cell density was determined. The cell slurry was diluted to the required volume at a density of 625,000 cells/ml. 160 ul/well of the cell slurry was dispensed onto assay plates. (100,000 cells per well). The assay plates were incubated overnight at 37 degrees C., 5% CO2 under humidified conditions. On Day 2, the cells were treated with […] and Hydroquinone or Vitamin C as a reference. 200× compounds were prepared in 100% DMSO. Transfer 5 ul 200× compound was transferred to 95 ul completed medium (MEM with 10% FBS), and mixed 5 times. 20 ul 10× compound solution was transferred onto assay plates. The assay plates were incubated at 37 degrees C., 5% CO2 under humidified conditions.

[2] = test system: Hep G2 [HEPG2] cells; assay: Anti-carbonylation assay (protein carbonyl ELISA after H2O2 treatment); type: cell-based; conditions: 3 mM H2O2 4 hr, replicate values
Description: The purpose of this experiment was to test […] on anti-carbonylation assay using Hep G2 [HEPG2] (ATCC#HB-8065) cell line. The carbonylation process is related to protein degeneration and is similar to oxidation and glycation. On Day 1 of the procedure, Hep G2 [HEPG2] cells were plated on 96-well cell culture plates. To do so, disk was trypsinized and the cell density was determined. The cell slurry was diluted to the required volume at a density of 625,000 cells/ml. 160 ul/well of the cell slurry was dispensed onto assay plates. (100,000 cells per well). The assay plates were incubated overnight at 37 degrees C., 5% CO2 under humidified conditions. On Day 2, the cells were treated with […] and Hydroquinone or Vitamin C as a reference. 200× compounds were prepared in 100% DMSO. Transfer 5 ul 200× compound was transferred to 95 ul completed medium (MEM with 10% FBS), and mixed 5 times. 20 ul 10× compound solution was transferred onto assay plates. The assay plates were incubated at 37 degrees C., 5% CO2 under humidified conditions. Day 3 included treatment with H2O2. 30 mM H2O2 solution was prepared and 20 ul/well of H2O2 solution was dispensed onto assay plates (H2O2 final conc. 3 mM). The assay plates were incubated for 4 hr at 37 degrees C., 5% CO2 under humidified conditions. Following the incubation, the cell culture medium was discarded and cells once washed once with PBS. 60 ul PBS was added onto assay plate, frozen at -80° C. Frozen samples were recovered 3 times. […] The liquid supernatant was then transferred to compound plate. 5 ul of each cell lysis was obtained and the protein concentration was tested. The protein concentration was adjusted to 5 μg/ml with PBS and reduced BSA (total protein conc. 10 μg/ml), and mixed 5 times. 100 uL of the 5 ug/ml samples was then transferred onto the 96-well Protein Binding Plate, and incubated in 4° C. overnight. To perform ELISA assay on Day 5, the wells were washed 3 times with 250 μL PBS per well and excess wash solution removed. 100 μL of the 0.04 mg/ml DNPH Working Solution was added and the plates were incubated for 45 minutes at room temperature in the dark. The plates were then washed 5 times with 250 μL of PBS/Ethanol (1:1, v/v) with incubation on an orbital shaker for 5 minutes. Next, the plates were washed 2 times with 250 μL of PBS. 200 μL of Blocking Solution was added per well and the plates were incubated for 2 hours at room temperature on an orbital shaker, and then washed 3 times with 250 μL of 1× Wash Buffer with thorough aspiration between each wash. 100 μL anti-DNP antibody was added and the plates were incubated for 1 hour at room temperature on an orbital shaker. Next, the strip wells were washed 3 times (1× wash buffer), 100 μL of the diluted HRP conjugated secondary antibody was added to all wells and plates were incubated for 1 hour at room temperature on an orbital shaker. The strip wells were then washed 5 times (1× wash buffer). The Substrate Solution was warmed to room temperature and 100 μL of Substrate Solution was added to each well, 5 20 min. The enzyme reaction was stopped by adding 100 μL of Stop Solution to each well. […] Data Process included: • Signal=Sample 450 nm Signal-10 ug/ml Reduced BSA Signal • Protein Carbonyl Conc. (PCC)=(Signal-Y intercept)/Slope • % Inh=(Max PCC-Sample PCC)/(Max PCC-Min PCC)×100 • Max PCC was obtained from the cells treated with H2O2 • Min PCC was obtained from none treated cells • IC50 was calculated using GraphPad Prism V5.0 software

| Structure (SMILES) | IC50 [1] | Carbonylation inhibition ([2]; 33 ug/ml) | Carbonylation inhibition ([2]; 100 ug/ml) | Carbonylation inhibition ([2]; 300 ug/ml) | inhibition at 33 µg/mL ([2]; Homo sapiens, HepG2, 4 h, 33 ug/ml) | inhibition at 100 µg/mL ([2]; Homo sapiens, HepG2, 4 h, 100 ug/ml) |
| --- | --- | --- | --- | --- | --- | --- |
| Oc1ccc(O)cc1 [Hydroquinone] | 8.44 µg/mL (≈ 76.7 µM) | – | – | – | – | – |
| O=C1O[C@H]([C@@H](O)CO)C(O)=C1O [Vit. C, Vitamin C] | – | 28.6% | 64.6% | 49.1% and 76.2% | 33.5% | 46.1% |
